Results from article PMC3321071 (Bioorganic & medicinal chemistry letters, 2012).

Test system: gp41-mediated cell–cell fusion
Experiment: cell–cell fusion
Format: cell-based, HIV-1
Details: read-out: IC50 in CCF assay

| Substance | IC50 [µM] |
| --- | --- |
| H2N-Asn-[Trp]-Trp-OH | 6 to 8 |
| H2N-Trp-[Trp]-Leu-OH | 5 |
| H2N-TyrMe-[Trp]-Trp-OH | 6 to 8 |
